# Experimental data taken from patent publication US20100063085A1, “METHOD OF TREATING LEARNING IMPAIRMENT IN DOWN'S SYNDROME SUBJECTS” (University Court of The University of Dundee, priority 2008, published 2010).
# Like-named read-outs stand apart in the source and are kept apart here.
# Tests used:
# Assay type in all cases: biochemical
# MAPKAP-K2 = MAPKAP-K2 (Homo sapiens, UniProt P49137); experiment: MAPKAP-K2 33P kinase assay; settings: read-out: MAPKAP-K2 activity as percentage of control without inhibitor
# Experimental: (§1) All assays (25.5 μl) were carried out at room temperature (21° C.) and were linear with respect to time and enzyme concentrations under the conditions used. Assays were performed for 30 minutes except assays for LCK and PKB which were performed for 15 minutes using Multidrop Micro reagent dispensers (Thermo Electron Corporation, Waltham, Mass. 02454, USA) in a 96-well format. The concentration of […] [γ-^33P] ATP (800 cpm/pmol) in the assays was one of three concentrations (5, 20 or 50 μM) in order to be at or below Km for ATP for the enzyme. Assays were initiated with MgATP and stopped by addition of 5 μl of 0.5M orthophosphoric acid. Assays were then harvested onto P81 filterplates using a unifilter harvester (PerkinElmer, Boston, Mass. 02118, USA), with a wash buffer of 50 mM orthophosphoric acid. Filterplates were then air dried overnight. 10 μl of Microscint O was added per well prior to counting for radioactivity.
# (§2) MKK1, JNK/SAPK1c, SAPK2a/p38, SAPK2b/p38β2, SAPK3/p38γ, SAPK4/p38δ, MAPK2/ERK2, MAPKAP-K1β, MAPKAP-K2, MSK1, PRAK, PKA, PKCα, PDK1, SGK, p70S6K, GSK3β, ROCK-II, PRK2, AMPK, CHK1, CHK2, CK2, PHK, LCK, were assayed according to Davies et al., (Davies, S. P., Reddy, H., Caivano, M. and Cohen, P. Biochem. J. 351, 95-105, 2000.
# (§3) CSK and CDK2/cyclinA, were assayed according to Bain et al. (Bain J, McLauchlan H, Elliott M, Cohen P. Biochem J. 371, 199-204, 2003., except that ATP concentrations were either 5, 20 or 50 micromolar so that they were at or below the Km for ATP. The ATP concentrations used were as follows, 5 μM for assays of MKK1, SAPK3, SAPK4, GSK3β, PRK2 CK2 20 μm for assays of JNK, SAPK2β, MAPKAP-K2, MSK1, PRAK, PKA, […], PDK1, SGK, p70S6K, ROCK-II, CHK1, CHK2, CSK, CDK2, and 50 μM for assays of SAPK2a, MAPK2/ERK2, AMPK, LCK, PHK and MAPKAP-K1β.
# PHK = PHK 33P kinase assay
# Experimental: as §1, §2, §3
# JNK3 = JNK3 (Homo sapiens, UniProt P53779); experiment: JNK3 33P kinase assay; settings: read-out: JNK3 activity as percentage of control without inhibitor
# Experimental: as §1
# The following kinases were assayed against the substrates indicated. Aurora B was assayed against the substrate peptide […] (300 μM), ERK8 and MST-2 were both assayed against MBP (0.33 mg/ml). IKKβ was assayed against the substrate peptide […] (300 μM), JNK3 was assayed against 3 μM ATF2[19-96]. MAPKAP-K3 and PKD1 were both assayed against […] (30 μM), MARK3 was assayed against CHKtide ([…]) substrate peptide (300 μM). MNK1 and MNK2 were both assayed against eIF4E protein (0.5 mg/ml). NEK7 was assayed against […] (300 μM), PIM2 was assayed against […] (300 μM), ΔPH PKBβ-S474D was assayed against Crosstide (30 μM), PLK1 was assayed against […] (300 μM). PRK2 was assayed against Long S6 peptide, […] (30 μM), RSK2 was assayed against […] (30 μM), SRC was assayed against cdc2 peptide, […], (300 μM) and SRPK1 was assayed against peptide […] (300 μM). All enzymes were diluted in 50 mM Tris/HCl pH 7.5, 0.1 mM EGTA, 1 mg/ml BSA, 0.1% β-mercaptoethanol buffer and assayed in an incubation containing 50 mM Tris/HCl pH7.5, 0.1 mM EGTA, 0.1% β-mercaptoethanol, CAMK-1 (5-20 mU) diluted in 50 mM Tris/HCl pH 7.5, 0.1 mM EGTA, 1 mg/ml BSA, 0.1% β-mercaptoethanol is assayed against substrate peptide […] in an incubation containing 50 mM Tris/HCl pH 7.5, 0.1 mM EGTA, 0.5 mM CaCl2, 0.3 μM calmodulin, 0.1% β-mereaptoethanol, 300 μM substrate peptide, 10 mM magnesium acetate and 0.05 mM [^33P-γ-ATP] (500-1000 cpm/pmole). EF2K (5-20 mU) diluted in 50 mM Hepes pH 6.6, 0.1% β-mercaptoethanol, 1 mg/ml BSA is assayed against a substrate peptide […] in an incubation containing 50 mM Hepes pH 6.6, 0.2 mM CaCl2, 0.3 μM Calmodulin, 0.05% b-mercaptoethanol, 300 μM substrate peptide, 10 mM magnesium acetate and 0.05 mM [^33P-γ-ATP] (500-1000 cpm/pmole).
# GSK3b = GSK3b (Homo sapiens, UniProt P49841); experiment: GSK3b 33P kinase assay; settings: read-out: GSK3b activity as percentage of control without inhibitor
# Experimental: as §1, §2, §3
# PKA = PKA (Homo sapiens, UniProt P17612); experiment: PKA 33P kinase assay; settings: read-out: PKA activity as percentage of control without inhibitor; for remaining activity at 1 µM: inhibitor 1 μM; for remaining activity at 10 µM: inhibitor 10 μM
# Experimental: as §1, §2, §3
# MSK1 = MSK1 (Homo sapiens, UniProt O75582); experiment: MSK1 33P kinase assay; settings: read-out: MSK1 activity as percentage of control without inhibitor
# Experimental: as §1, §2, §3
# JNK/SAPK1c = JNK/SAPK1c (Homo sapiens, UniProt P45983); experiment: JNK/SAPK1c 33P kinase assay; settings: read-out: JNK/SAPK1c activity as percentage of control without inhibitor
# Experimental: as §1, §2, §3
# MAPKAP-K1a = MAPKAP-K1a (Homo sapiens, UniProt Q15418); experiment: MAPKAP-K1a 33P kinase assay; settings: read-out: MAPKAP-K1a activity as percentage of control without inhibitor
# Experimental: as §1
# MAPKAP-K1a (5-20 mU diluted in 20 mM MOPS pH 7.5, 1 mM EDTA, 0.01% Brij35, 5% glycerol, 0.1% β-mercaptoethanol, 1 mg/ml BSA) is assayed against […] in a final volume of 25.5 μl containing 50 mM Na-β-glycerophosphate pH 7.5, 0.5 mM EDTA, 30 μM substrate peptide, 10 mM magnesium acetate and 0.05 mM [33P- γATP] (50-1000 cpm/pmole) and incubated for 40 min at room temperature.
# Chain of MAPKAP-K2 (P49137 whole entry, species assumed): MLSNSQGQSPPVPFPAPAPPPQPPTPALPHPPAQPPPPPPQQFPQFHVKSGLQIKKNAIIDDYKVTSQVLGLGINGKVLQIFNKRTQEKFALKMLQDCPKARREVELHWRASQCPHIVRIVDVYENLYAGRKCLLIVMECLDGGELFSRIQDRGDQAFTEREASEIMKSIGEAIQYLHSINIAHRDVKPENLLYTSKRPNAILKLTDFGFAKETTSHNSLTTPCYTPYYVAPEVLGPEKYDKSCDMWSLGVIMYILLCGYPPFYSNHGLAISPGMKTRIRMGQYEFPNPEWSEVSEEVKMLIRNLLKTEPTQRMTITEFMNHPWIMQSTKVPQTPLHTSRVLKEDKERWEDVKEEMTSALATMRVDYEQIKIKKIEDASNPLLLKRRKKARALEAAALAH
# Chain of JNK3 (P53779 whole entry, species assumed): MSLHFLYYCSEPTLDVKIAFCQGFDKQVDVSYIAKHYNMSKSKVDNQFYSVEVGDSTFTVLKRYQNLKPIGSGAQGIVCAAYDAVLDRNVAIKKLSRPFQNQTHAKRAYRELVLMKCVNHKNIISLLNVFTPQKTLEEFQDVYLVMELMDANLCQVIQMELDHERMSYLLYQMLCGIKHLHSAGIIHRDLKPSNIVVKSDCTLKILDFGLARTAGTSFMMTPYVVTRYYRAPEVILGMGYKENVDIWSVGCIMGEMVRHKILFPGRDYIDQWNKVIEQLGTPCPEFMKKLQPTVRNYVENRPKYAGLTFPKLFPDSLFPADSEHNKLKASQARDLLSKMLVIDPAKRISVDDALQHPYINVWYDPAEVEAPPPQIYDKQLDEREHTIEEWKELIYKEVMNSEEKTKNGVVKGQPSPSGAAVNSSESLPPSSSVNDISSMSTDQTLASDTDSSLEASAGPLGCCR
# Chain of JNK/SAPK1c (P45983 whole entry): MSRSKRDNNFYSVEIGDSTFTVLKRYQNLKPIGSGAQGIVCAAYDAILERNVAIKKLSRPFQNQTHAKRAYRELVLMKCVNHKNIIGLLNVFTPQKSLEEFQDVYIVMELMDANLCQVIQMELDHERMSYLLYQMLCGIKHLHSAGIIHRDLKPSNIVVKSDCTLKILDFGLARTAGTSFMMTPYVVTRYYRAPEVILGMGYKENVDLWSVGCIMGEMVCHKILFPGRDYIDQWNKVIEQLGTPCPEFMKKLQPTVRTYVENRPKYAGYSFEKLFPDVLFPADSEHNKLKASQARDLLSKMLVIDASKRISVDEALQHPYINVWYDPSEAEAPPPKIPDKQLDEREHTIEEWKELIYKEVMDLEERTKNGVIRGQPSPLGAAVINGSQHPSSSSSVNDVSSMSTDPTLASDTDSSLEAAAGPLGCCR
# Chain of MAPKAP-K1a (Q15418 whole entry, species assumed): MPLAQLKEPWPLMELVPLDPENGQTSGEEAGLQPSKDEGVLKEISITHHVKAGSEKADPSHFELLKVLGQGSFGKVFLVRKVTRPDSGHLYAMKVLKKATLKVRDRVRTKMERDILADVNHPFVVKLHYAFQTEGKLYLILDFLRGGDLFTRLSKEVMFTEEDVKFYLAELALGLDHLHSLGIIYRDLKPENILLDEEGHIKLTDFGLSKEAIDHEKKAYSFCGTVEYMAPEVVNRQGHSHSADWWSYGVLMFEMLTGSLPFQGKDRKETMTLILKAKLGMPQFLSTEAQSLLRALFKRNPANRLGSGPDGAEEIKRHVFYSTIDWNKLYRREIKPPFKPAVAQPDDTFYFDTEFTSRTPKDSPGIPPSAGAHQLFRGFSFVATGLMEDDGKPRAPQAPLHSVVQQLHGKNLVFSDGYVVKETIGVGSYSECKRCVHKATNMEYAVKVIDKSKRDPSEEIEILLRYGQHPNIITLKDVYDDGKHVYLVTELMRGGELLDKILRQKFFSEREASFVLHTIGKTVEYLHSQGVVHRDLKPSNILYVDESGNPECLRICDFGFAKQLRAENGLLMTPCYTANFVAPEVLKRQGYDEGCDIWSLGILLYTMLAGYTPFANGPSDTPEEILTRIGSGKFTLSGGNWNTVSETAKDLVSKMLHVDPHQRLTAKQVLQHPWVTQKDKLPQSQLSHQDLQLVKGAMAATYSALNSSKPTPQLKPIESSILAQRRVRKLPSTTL
# Chain of MSK1 (O75582 whole entry, species assumed): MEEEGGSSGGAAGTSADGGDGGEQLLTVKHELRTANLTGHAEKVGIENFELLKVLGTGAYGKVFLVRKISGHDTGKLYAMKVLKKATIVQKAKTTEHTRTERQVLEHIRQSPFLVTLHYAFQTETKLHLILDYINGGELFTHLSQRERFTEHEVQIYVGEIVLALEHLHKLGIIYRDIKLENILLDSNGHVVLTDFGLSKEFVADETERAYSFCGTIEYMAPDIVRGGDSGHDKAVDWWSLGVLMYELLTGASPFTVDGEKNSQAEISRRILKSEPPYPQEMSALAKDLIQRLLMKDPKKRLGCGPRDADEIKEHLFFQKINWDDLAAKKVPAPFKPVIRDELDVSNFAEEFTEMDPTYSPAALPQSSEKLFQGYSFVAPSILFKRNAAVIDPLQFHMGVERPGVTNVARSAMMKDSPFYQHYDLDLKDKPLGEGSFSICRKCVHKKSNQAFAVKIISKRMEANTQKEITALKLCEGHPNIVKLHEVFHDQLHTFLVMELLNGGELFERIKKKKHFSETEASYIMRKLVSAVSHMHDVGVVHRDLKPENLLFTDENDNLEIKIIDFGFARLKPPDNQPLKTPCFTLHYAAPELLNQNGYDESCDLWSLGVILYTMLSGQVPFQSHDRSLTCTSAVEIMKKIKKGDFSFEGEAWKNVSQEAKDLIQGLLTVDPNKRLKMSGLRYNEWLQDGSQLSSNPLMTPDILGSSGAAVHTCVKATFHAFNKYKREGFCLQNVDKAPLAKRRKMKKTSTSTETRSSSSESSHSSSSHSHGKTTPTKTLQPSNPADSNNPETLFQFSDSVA
# Chain of GSK3b (P49841 whole entry, species assumed): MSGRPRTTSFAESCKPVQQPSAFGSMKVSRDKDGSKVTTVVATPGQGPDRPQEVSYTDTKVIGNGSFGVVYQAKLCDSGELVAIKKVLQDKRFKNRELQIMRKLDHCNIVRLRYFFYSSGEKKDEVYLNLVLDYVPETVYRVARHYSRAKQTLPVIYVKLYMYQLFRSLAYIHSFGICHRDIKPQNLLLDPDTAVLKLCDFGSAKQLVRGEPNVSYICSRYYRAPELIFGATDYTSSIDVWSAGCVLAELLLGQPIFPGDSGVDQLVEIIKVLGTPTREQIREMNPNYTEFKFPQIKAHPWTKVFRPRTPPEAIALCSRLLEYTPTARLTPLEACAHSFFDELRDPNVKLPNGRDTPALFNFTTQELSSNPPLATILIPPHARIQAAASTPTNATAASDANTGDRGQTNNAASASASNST
Structure (SMILES),remaining activity at 1 µM (MAPKAP-K2; inhibitor 1 μM) [%],remaining activity at 10 µM (MAPKAP-K2; inhibitor 10 μM) [%],PHK activity as percentage of control without inhibitor (PHK; inhibitor 1 μM) [%],PHK activity as percentage of control without inhibitor (PHK; inhibitor 10 μM) [%],remaining activity at 1 µM (JNK3) [%],remaining activity at 10 µM (JNK3) [%],remaining activity at 1 µM (GSK3b) [%],remaining activity at 10 µM (GSK3b) [%],remaining activity at 1 µM (PKA) [%],remaining activity at 10 µM (PKA) [%],remaining activity at 1 µM (MSK1; inhibitor 1 μM) [%],remaining activity at 10 µM (MSK1; inhibitor 10 μM) [%],remaining activity at 1 µM (JNK/SAPK1c) [%],remaining activity at 10 µM (JNK/SAPK1c) [%],remaining activity at 1 µM (MAPKAP-K1a; inhibitor 1 μM) [%],remaining activity at 10 µM (MAPKAP-K1a; inhibitor 10 μM) [%],also measured
COc1ccc2c3c([nH]c2c1)C(C)=NCC3 [Harmaline],104,112,73,88,87,81,77,82,70,86,98,111,99,96,98,90,
CC1=NCCc2c1[nH]c1cc(O)ccc21 [Harmalol],79,69,101,63,,,,,90,75,84,59,,,101,85,remaining activity at 1 µM (JNK3; inhibitor 1 μM): 92%; remaining activity at 10 µM (JNK3; inhibitor 10 μM): 94%; remaining activity at 1 µM (GSK3b; inhibitor 1 μM): 90%; remaining activity at 10 µM (GSK3b; inhibitor 10 μM): 73%; remaining activity at 1 µM (JNK/SAPK1c; inhibitor 1 μM): 87%; remaining activity at 10 µM (JNK/SAPK1c; inhibitor 10 μM): 84%
COc1ccc2c(c1)[nH]c1c(C)nccc12 [Harmine],,,103,82,89,83,82,72,82,92,,,85,69,,,remaining activity at 1 µM (MAPKAP-K2): 78%; remaining activity at 10 µM (MAPKAP-K2): 82%; remaining activity at 1 µM (MSK1): 90%; remaining activity at 10 µM (MSK1): 88%; remaining activity at 1 µM (MAPKAP-K1a): 105%; remaining activity at 10 µM (MAPKAP-K1a): 92%
